Test system in one data set: not given
Assay: not given
Details: not given
As to `CCc1nn(CCO)c(CC)c1Oc1ccc(C#N)cc1` [Example 21, 4-[3,5-Diethyl-1-(2-hydroxy-ethyl)-1H-pyrazol-4-yloxy]-benzonitrile], the melting point (commonly the temperature of the solid-liquid transition) was determined as 82 °C.

Regarding `CCOC(=O)Cn1nc(C2CC2)c(Oc2cc(C)c(C#N)c(C)c2)c1C1CC1` (hydrate or solvate) [Example 38, Ethyl[4-(4-cyano-3,5-dimethylphenoxy)-3,5-dicyclopropyl-1H-pyrazol-1-yl]acetate], the melting point lay within 156 to 157 °C.

`CCc1nn(CCO)c(CC)c1Oc1cc(C)c(C#N)c(C)c1` [Example 27, 4-[3,5-Diethyl-1-(2-hydroxy-ethyl)-1H-pyrazol-4-yloxy]-2,6-dimethyl-benzonitrile] yielded a melting point of 97 °C.

`CCc1nn(CCO)c(CC)c1Oc1ccc(C#N)c(Cl)c1` gave a melting point of 85 °C.

Molecule `CNC(=O)Cn1nc(C2CC2)c(Oc2ccc(C#N)cc2)c1C1CC1` [Example 52, 2-[4-(4-Cyanophenoxy)-3,5-dicyclopropyl-1H-pyrazol-1-yl]-N-methylacetamide] registered a melting point of 163 °C.

The molecule `CCOC(=O)Cn1nc(CC)c(Oc2ccc(C#N)cc2)c1CC` [Example 35, Ethyl[4-(4-cyanophenoxy)-3,5-diethyl-1H-pyrazol-1-yl]acetate] displayed a melting point of 147 to 149 °C.

The next data set deals with T1, Progesterone Receptor (PR) (Homo sapiens, UniProt P06401).
T1 construct: endogenous in cells; host or cells: T47D human breast mammary carcinoma cells
T1 sequence (P06401 1-933): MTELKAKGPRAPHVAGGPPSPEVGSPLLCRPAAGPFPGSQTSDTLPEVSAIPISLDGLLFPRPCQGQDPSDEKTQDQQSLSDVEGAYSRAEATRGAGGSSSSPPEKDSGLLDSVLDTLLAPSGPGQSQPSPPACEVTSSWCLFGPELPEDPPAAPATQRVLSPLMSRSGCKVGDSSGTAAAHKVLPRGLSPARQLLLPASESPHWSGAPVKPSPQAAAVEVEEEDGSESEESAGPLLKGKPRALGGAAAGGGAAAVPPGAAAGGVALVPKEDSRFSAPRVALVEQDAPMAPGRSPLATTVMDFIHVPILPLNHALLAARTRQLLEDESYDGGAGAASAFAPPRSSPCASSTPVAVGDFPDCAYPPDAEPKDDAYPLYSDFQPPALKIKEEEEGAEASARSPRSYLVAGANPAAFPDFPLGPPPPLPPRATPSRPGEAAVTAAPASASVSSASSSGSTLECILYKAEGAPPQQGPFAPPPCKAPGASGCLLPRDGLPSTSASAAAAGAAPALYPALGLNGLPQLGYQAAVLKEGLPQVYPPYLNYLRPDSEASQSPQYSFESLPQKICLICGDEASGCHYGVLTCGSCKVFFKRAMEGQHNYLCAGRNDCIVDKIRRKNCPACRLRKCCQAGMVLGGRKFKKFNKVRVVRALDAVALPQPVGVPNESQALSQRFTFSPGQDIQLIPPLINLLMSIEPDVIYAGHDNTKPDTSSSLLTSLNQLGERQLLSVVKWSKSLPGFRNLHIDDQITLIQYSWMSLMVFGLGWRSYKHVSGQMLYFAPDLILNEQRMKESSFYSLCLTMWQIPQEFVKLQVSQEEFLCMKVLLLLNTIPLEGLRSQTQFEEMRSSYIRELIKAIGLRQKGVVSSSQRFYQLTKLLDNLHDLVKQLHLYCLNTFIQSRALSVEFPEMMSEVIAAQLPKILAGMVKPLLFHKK
Nature of the data set: In vitro functional assay for progesterone receptor (PR) antagonism: inhibition of progesterone-induced alkaline phosphatase expression in T47D cells. The settings on record: Screen 1.0, functional progesterone antagonism; antagonist format (5 nM P4), alkaline phosphatase inhibition in T47D human mammary carcinoma cells. Format: cell-based. The source says:
1.0 In vitro Functional Assay for Progesterone Receptor (PR) Antagonism
The assay for PR antagonism takes advantage of the extensively reported modulation of alkaline phosphatase (AP) expression in human breast T47D mammary carcinoma cells {Beck et al., D. P. (1993). The progesterone antagonist RU486 acquires agonist activity upon stimulation of cAMP signalling pathways. Proc Natl Acad Sci USA 90, 4441-4445; Fensome et al. (2002). New progesterone receptor antagonists: 3,3-disubstituted-5-aryloxindoles. Bioorg Med Chem Left 12, 3487-3490; Zhang et al., (2002a). 6-Aryl-1,4-dihydro-benzo d 1,3 oxazin-2-ones: a novel class of potent, selective, and orally active nonsteroidal progesterone receptor antagonists. Journal of Medicinal Chemistry 45, 4379-4382; Zhang et al., (2003). Novel 6-aryl-1,4-dihydrobenzo d oxazine-2-thiones as potent, selective, and orally active nonsteroidal progesterone receptor agonists. Bioorganic & Medicinal Chemistry Letters 13, 1313-1316; Zhang et al., (2002b). Potent nonsteroidal progesterone receptor agonists: synthesis and SAR study of 6-aryl benzoxazines. Bioorganic & Medicinal Chemistry Letters 12, 787-790; Zhang, Z. et al., (2000). In vitro characterization of trimegestone: a new potent and selective progestin. Steroids 65, 637-643.}. […] In the absence of progesterone any agonist activity is also observed as an induction of AP activity. By running the assay in two formats (+/−progesterone (P4)), compounds behaving as PR antagonists, agonists or partials can be identified.
The materials required to grow T47D cells and perform the progesterone-induced AP assay are outlined in Table 1.
Briefly, T47D cells are grown by propagating in DMEM+10% FBS+2 mM Glutamax at 37° C./5% CO2. At 80-90% confluence, the media is exchanged for phenol red free DMEM+5% CS-FCS (Assay media) and cultured for a further 24 hrs at 37° C./5% CO2. T47D cells are then plated at 2.5×10^4 cells/well in 100 μL assay media in sufficient 96 well plates for the assay, in triplicates of each condition. For example, for a 5 point IC50 curve on one compound, this is equivalent to 36 wells (2×18 wells, ±P4). These plates are then cultured for 24 hrs at 37° C./5% CO2, leaving the outside wells blank by the addition of 200 μL PBS.
A 10 mM stock solution of compounds is prepared in DMSO (stored −20° C. in 10 µL aliquots). A 10 mM DMSO stock of RU486 is used as a standard pure PR antagonist. The compounds under investigation are added to assay medium, or a mixture of 0.05% pluronic acid in PBS, ±10 nM P4 to give a final concentration of 20 µM (i.e. 10 µL of the 10 mM stock to […] assay medium ±10 nM P4). The samples are mixed thoroughly and serial dilutions of compounds from 10 µM to 0.1 nM in a 96 well plate, are prepared as follows:
The outside wells are left blank. Assay medium (225 μL) is added to one half of the plate (−P4), rows 3-8, and to the other half of the plate, assay medium +10 nM P4. To row 2, 250 μL of the top concentration of compound (20 μM±10 nM P4) is added. 25 μL of the […] stock from row 2 is removed and added to the 225 μL of assay medium ±10 nM P4 in row 3 and thoroughly mixed. This process is repeated down the plate to row 7 to achieve serial dilutions. The vehicle control is adjusted to contain 0.1% DMSO (i.e. 20 μL to 10 mL assay medium ±10 nM P4 to give a concentration of 0.2% DMSO, add 250 μL to row 8).
100 μL of reagent from the dilution plates are transferred into the corresponding wells containing T47D cells in 100 μL assay medium, to give a final concentration of 10 μM to 0.1 nM compound (5 nM P4 antagonist format). The cells for 20 hrs at 37° C./5% CO2., then media is removed, cells washed with PBS (200 μL) and lysed by placing the cells at −80° C. for 15 min and thawing at room temp. The Freeze-thaw lysis is repeated, then PBS (50 μL) is added to each well. […]
Regarding `Cc1cc(Oc2c(C3CC3)nn(Cc3cncnc3)c2C2CC2)cc(C)c1C#N` [Example 126, 4-({3,5-Dicyclopropyl-1-[(pyrimidin-5-yl)methyl]-1H-pyrazol-4-yl}oxy)-2,6-dimethylbenzonitrile], the IC50 (commonly the concentration needed to halve the response being measured) turned out to be 3 nM.

`CCCn1nc(CC)c(Oc2ccc(C#N)cc2)c1CC` [Example 146, 4-[(3,5-Diethyl-1-propyl-1H-pyrazol-4-yl)oxy]benzonitrile] yielded an IC50 of 6 nM.

`CCc1nn(CC#N)c(CC)c1Oc1cc(C)c(C#N)c(C)c1` [Example 87, 4-{[1-(Cyanomethyl)-3,5-diethyl-1H-pyrazol-4-yl]oxy}-2,6-dimethylbenzonitrile] displayed an IC50 of 5 nM.

Consider `CNC(=O)Cn1nc(C2CC2)c(Oc2cc(C)c(C#N)c(C)c2)c1C1CC1` [Example 65, 2-[4-(4-Cyano-3,5-dimethylphenoxy)-3,5-dicyclopropyl-1H-pyrazol-1-yl]-N-methyl-acetamide], for which the IC50 was 3 nM.

The molecule `CNC(=O)Cn1nc(C2CC2)c(Oc2cc(C)c(C#N)c(C)c2)c1C` [Example 71, 2-[4-(4-Cyano-3,5-dimethyl-phenoxy)-3-cyclopropyl-5-methyl-1H-pyrazol-1-yl]-N-methyl-acetamide] showed an IC50 of 4 nM.

`Cc1cc(Oc2c(C3CC3)n[nH]c2C2CC2)cc(C)c1C#N` [Example 4, 4-[(3,5-Dicyclopropyl-1H-pyrazol-4-yl)oxy]-2,6-dimethylbenzonitrile] had an IC50 of 9 nM.

The record behind these values is patent US7482375B2, “Compounds useful in therapy” (Pfizer Inc., priority 2005, dated 2009).
